From PMC5502478 (ACS chemical biology, 2016)

Columns and labels:
Assay type in all cases: cell-based
[1] = system: Candida albicans ATCC 10231; settings: compared to 1 and 2
[2] = system: Candida glabrata ATCC 2001; experiment: MIC, serial dilution antifungal assay
Human erythrocytes = experiment: Hemolytic assay; settings: tested concentrations

Substance | fold more potent (MIC) than wild-type fermentation products 1 and 2 against C. albicans [1] [fold] | fold improvement of MIC against C. glabrata compared to 1 [2] [fold] | hemolytic activity relative to pneumocandin B0 (overall) (Human erythrocytes)
pneumocandin K [Compound 7] | 4 | 32 | higher hemolytic activity than pneumocandin B0
pneumocandin I [Compound 5] | 8 | 32 | comparable to pneumocandin B0
